Marks after values point to notes of the source that are not given here.
Tests used:
Type in all cases: in vivo
ovariectomized rats [1] = assay: Serum triglyceride, glucose, insulin, cholesterol levels and HOMA-IR in overnight-fasted ovariectomized rats; conditions: n = 12, means ± SD
Procedure: In order to confirm efficacies of the Tetragonia tetragonoides (Pall.) Kuntze extract prepared according to Preparation Example 1 for ameliorating menopausal obesity, rats were ovariectomized and, at the same time, obesity-induced. The rats were fed with the Tetragonia tetragonoides (Pall.) Kuntze extract, and effects of the extract on obesity-related parameters in blood were evaluated. The ovariectomized rats were fed with the Tetragonia tetragonoides (Pall.) Kuntze by the method according to Example 1-1. Then, at the end of the experiment, the rats were fasted overnight and masses of serum glucose, insulin, and triglyceride were measured. Specifically, the rats were fasted for 16 hours, and then blood was collected from tails. Fasting serum glucose levels were measured by a Beckman glucometer and serum insulin concentrations were measured by radioimmunoassay. Fasting blood glucose, food and water intake, and body weight were measured at 10 a.m. on every Tuesday. Based on the above results, a homeostasis model assessment of insulin resistance (HOMA-IR) concentration which is used as a marker of insulin resistance was calculated, and the following Equation 1 was used for such calculation. HOMA-IR=fasting insulin(μIU/ml)×fasting glucose(mM)/22.5 [Equation 1]

ovariectomized rats [2] = assay: Energy consumption by indirect calorimetry in ovariectomized rats; conditions: indirect calorimetry after 8 weeks, 6 hours fasting, n = 12, means ± SD
From the text: Specifically, the ovariectomized rats were fed with a high-fat diet (HFD) consisting of 40% energy (En %) of carbohydrate, 20 En % of protein, and 40 En % of fat, along with dextrin. The high-fat diet was made to contain 2% (w/w) of the Tetragonia tetragonoides (Pall.) Kuntze extract, and the rats were offered ad libitum access to the diet for 8 weeks. On the other hand, in the positive-control, the ovariectomized rats received 17β-estradiol which is a hormone preparation and were fed with a diet in which the high fat diet is mixed with dextrin for 8 weeks. Then, at the end of the experiment, a body weight, a mass of visceral fat including peri-uterine fat and fat in retroperitoneum, an energy consumption, and the like were measured. The energy consumption was analyzed by indirect calorimetry. Specifically, after the Tetragonia tetragonoides (Pall.) Kuntze extract was fed for 8 weeks, and a fasting state of 6 hours was induced, the energy consumption was measured at the time of beginning of a dark period in light/dark cycle. In order to analyze calorimetric parameters, a metabolic chamber (airflow=800 ml/min) equipped with a computer-controlled O2 and CO2 measurement system (BIOPAC Systems, Inc., Goleta, Calif.) was utilized, and respiratory quotient (RQ) and resting energy expenditure (REE) were calculated using equations. An average oxygen uptake (VO2) and an average carbon dioxide emission (VCO2) were measured over 30 minutes. After the experiment, data were averaged at 1 minute intervals and the VO2 and VCO2 values were calibrated to a body size (kg^0.75). Oxidation of carbohydrate and fat was calculated as a non-protein oxygen uptake, that is, a relative oxidation rate and an oxygen amount consumed per gram (g) of oxidized substrate.

ovariectomized rats [3] = assay: Body weight, visceral fat, uterus weight and calorie uptake at end of experiment in ovariectomized rats on high-fat diet
Procedure: In order to confirm efficacies of the Tetragonia tetragonoides (Pall.) Kuntze extract prepared according to Preparation Example 1 for ameliorating menopausal obesity, rats were ovariectomized and, at the same time, obesity-induced. The rats were fed with the Tetragonia tetragonoides (Pall.) Kuntze extract, and effects of the extract on visceral fat were evaluated. Specifically, the ovariectomized rats were fed with a high-fat diet (HFD) consisting of 40% energy (En %) of carbohydrate, 20 En % of protein, and 40 En % of fat, along with dextrin. The high-fat diet was made to contain 2% (w/w) of the Tetragonia tetragonoides (Pall.) Kuntze extract, and the rats were offered ad libitum access to the diet for 8 weeks. On the other hand, in the positive-control, the ovariectomized rats received 17β-estradiol which is a hormone preparation and were fed with a diet in which the high fat diet is mixed with dextrin for 8 weeks. Then, at the end of the experiment, a body weight, a mass of visceral fat including peri-uterine fat and fat in retroperitoneum, an energy consumption, and the like were measured.

ovariectomized rats [4] = assay: Evaluation on menopause inducement in ovariectomized rats (weight of uterus, serum 17β-estradiol by RIA kit); conditions: n = 12, means ± SD, Table 1
Procedure: Rats were ovariectomized to induce menopause, and weight of uterus and serum levels of 17β-estradiol that is a kind of female hormones were measured to determine whether menopause was induced in the rats. Specifically, the rats were sacrificed, and then their uteri were removed and weighed. A serum concentration of 17β-estradiol was measured with an RIA kit (Linco Research Inc.).

[5] = serum, overnight-fasted ovariectomized rats
[6] = ovariectomized rats, high-fat diet, 8 weeks, n = 12, means ± SD

C[C@]12CC[C@@H]3c4ccc(O)cc4CC[C@H]3[C@@H]1CC[C@@H]2O [Positive-control, 17β-estradiol] was tested, and the HOMA-IR (ovariectomized rats [1]; fasting insulin × fasting glucose / 22.5 (Equation 1)) was 6.8 ± 0.9^c, the Glucose levels (ovariectomized rats [1]; serum, overnight-fasted (16 hours) ovariectomized rats, end of experiment) was 109 ± 13^b mg/dL and the HDL cholesterol (ovariectomized rats [1]; [5]) was 23.2 ± 1.5^a mg/dL. The Total cholesterol (ovariectomized rats [1]; [5]) was 85.0 ± 7.6^c mg/dL, the Triglyceride levels (ovariectomized rats [1]; [5]) was 65.7 ± 5.8^b mg/dL and the Insulin levels (ovariectomized rats [1]; serum, overnight-fasted ovariectomized rats, radioimmunoassay) was 1.14 ± 0.19^b ng/mL. For the same compound, the Daily energy consumption (ovariectomized rats [2]; beginning of dark period) was 117 ± 15^a kcal/kg^0.75/day, the Carbohydrate oxidation (ovariectomized rats [2]) was 5.6 ± 0.7^b mg/kg^0.75/min and the Fat oxidation (ovariectomized rats [2]) was 6.9 ± 0.8^b mg/kg^0.75/min. The “weight of uterus (proliferation of uterus, side effect of hormone therapies)” value (ovariectomized rats [3]; in words) was “increase”, the Body weight (ovariectomized rats [3]; ovariectomized rats, high-fat diet with 2% (w/w) extract for 8 weeks (positive-control: 17β-estradiol), end of experiment, n = 12, means ± SD) was 369 ± 26^b g and the Body weight gain (ovariectomized rats [3]; [6]) was 70.0 ± 11.5^c g. For the same compound, the Fat in retroperitoneum (ovariectomized rats [3]; [6]) was 5.7 ± 1.6^c g, the Peri-uterine fat (ovariectomized rats [3]; [6]) was 7.2 ± 1.6^d g and the Weight of uterus (ovariectomized rats [3]; ovariectomized rats, high-fat diet, 8 weeks, n = 12, means ± SD, Table 2) was 0.61 ± 0.22^a g. The Visceral fat (ovariectomized rats [3]; peri-uterine fat and fat in retroperitoneum, ovariectomized rats, high-fat diet, 8 weeks, n = 12, means ± SD) was 12.9 ± 2.6^c g and the Weight of uterus (ovariectomized rats [4]) was 0.61 ± 0.22^a g.

— patent US20180271923A1, “COMPOSITION FOR PREVENTING OR TREATING MENOPAUSAL DISORDERS, CONTAINING TETRAGONIA TETRAGONOIDES (PALL.) KUNTZE EXTRACT” (Korea Institute of Oriental Medicine, priority 2015, published 2018)
